The results in this text go back to patent US12329741B2, “HBV inhibitor and its use” (priority 2019, dated 2025).

Series [1] is described as follows: Pharmacokinetics (PK) experiment, intragastric administration in rats. In kind it is in vivo, Male SD rats. Particulars: male, SD, rat, po, intragastric administration 20 mg/kg, plasma; for AUC(0-t): read-out: AUC0-24. On the procedure:
Male SD rats weighing 215-343 grams were fasted overnight before the test. The test compound was completely dissolved in 5% of the total volume of DMSO and then diluted with 30% Captisol to 2 mg/mL, and then it was administered by gavage at dosage of 20 mg/kg. In 15 minutes, 30 minutes, 1, 2, 4, 6, 8 and 24 hours after the administration, blood was taken from the end of the tails of rats at about 0.3 ml at each time point. The blood sample was placed in a centrifuge tube containing K2-EDTA, and centrifuged (@3500 rpm, 10 minutes, 4° C.). Take the plasma and store it in an ultra-low temperature refrigerator at −80° C. 50 μL of plasma sample was mixed with 135 μl of acetonitrile (including the internal standard IS), and then vortexed for 30 s, centrifuged at 15000 rpm at 4° C. for 10 min, and 10 μl of supernatant was taken as sample and injected into LC-MS/MS for analysis.

The subject of another series is hepatitis B virus (HBV). Briefly: Anti-hepatitis B virus activity: HBV DNA in supernatant of HepG2.2.15 cells by qPCR. The class given is cell-based. Particulars: 192 h, supernatant collected on day 8. An excerpt: (§1) In this experiment, real-time fluorescent quantitative PCR (qPCR) method was used to detect the content of HBV DNA in the supernatant of HepG2.2.15 cells to determine the anti-hepatitis B virus activity of the compound in HepG2.2.15 cells, and to detect cell viability impact of the test compound against HepG2.2.15 by Cell-titer Blue method. In the experiment, entecavir (ETV) was used as a reference compound to monitor the quality of the experiment.
On day 1, the cells were planted into a 96-well plate, the compound was added to treat the cells on day 2, a new culture medium containing the compound was replaced on day 5, and the supernatant was collected on day 8 to extract DNA. Quantitative PCR was used to detect the content of HBV DNA. Both the test compound and the control compound were diluted in a series of 3 times with 8 concentration points, and 2 replicate wells were measured in parallel. The final concentration of DMSO in the culture medium is 0.5%.
The calculation formula of the inhibition percentage is as follows: % inh.=(1-HBV copy number of sample/HBV copy number of 0.5% DMSO control)×100
EC50 was analyzed by Graphpad Prism software (four parameter logistic equations).
On the technique in general: Quantitative PCR measures a nucleic acid by following its amplification.

Series [2] can be described thus: Cytotoxicity test (Cell-titer Blue method) in HepG2.2.15 cells. In kind it is cell-based. The following applies: human, six days after treatment, highest concentration tested 100 μM, read-out: HepG2.2.15 cell viability CC50.
Description: as §1
The compound concentration, plate layout, and compound treatment process are consistent with the antiviral experiments. In six days after the cells were treated with the compound, the cell viability was measured with Cell-titer Blue.
Analyze the data and calculate relative cell viability: Use the following formula to calculate the percentage of cell viability: % Cell viability=(sample fluorescence reading-fluorescence reading of culture medium control)/(fluorescence reading of DMSO control-fluorescence reading of the culture medium control)×100.
Finally, GraphPad Prism software was used to calculate the CC50 value of the compound.

Each structure is given as a SMILES string.

A word on the AUC(0-inf): it is total exposure, with the tail of the curve extrapolated. Low readings indicate less exposure, high ones more exposure. In general, Cmax refers to the highest concentration seen after dosing. For orientation: Tmax means the time from dosing to the highest level. By half-life is commonly meant the time needed for the level to fall by half in the phase considered. Read a low half-life as rapid decline. Broadly, the EC50 is the concentration at which the effect is half-maximal. A high value points to weaker potency. What is called CC50 is the concentration at which the toxic effect on the cells reaches its halfway point. Consider `Cc1c(C(=O)C(=O)NC(C)(C)C)c(C)n(C)c1C(=O)Nc1ccc2occc2c1` [Compound 52, 1,3,5-Trimethyl-2-amide-N-(benzofuran-5)-4-(2-tert-butylamino-oxalyl)-pyrrole], for which, in series [1], the total exposure AUC(0-inf) worked out at 17100 ng·h/mL, the Cmax is 3670 ng/mL, the Tmax turned out to be 1 h and the half-life was 2.39 h. Also, the AUC(0-t) in series [1] was 17100 ng·h/mL. Also, the EC50 with hepatitis B virus (HBV) is ≤ 0.05 µM. In addition, the CC50 at 6 days in series [2] is > 100 µM.
Regarding `C#CCNC(=O)C(=O)c1c(C)c(C(=O)Nc2ccc3occc3c2)n(C)c1C` [Compound 53, 1,3,5-Trimethyl-2-amide-N-(benzofuran-5-yl)-4-(2-propargylamino-oxalyl)-pyrrole], in series [1], the AUC(0-inf) was determined as 26400 ng·h/mL, the peak concentration (Cmax) was found to be 3930 ng/mL, the time of peak concentration (Tmax) was found to be 1.58 h and the half-life was 2.48 h. Moreover, in series [1], the AUC(0-t) was 26300 ng·h/mL. Further, in the series with hepatitis B virus (HBV), the EC50 is ≤ 0.05 µM. Besides, the CC50 at 6 days in series [2] is > 100 µM.
In the case of `C#CC(C)(C)NC(=O)C(=O)c1c(C)c(C(=O)Nc2ccc3occc3c2)n(C)c1C` [Compound 54, 1,3,5-Trimethyl-2-amide-N-(benzofuran-5-yl)-4-(2-(1,1-dimethylpropynamido)-oxalyl)-pyrrole], in series [1], the total exposure AUC(0-inf) was found to be 87400 ng·h/mL, the peak level (Cmax) was 9430 ng/mL, the time to peak (Tmax) is 1.67 h and the half-life is 2.52 h. Besides, the AUC(0-t) in series [1] turned out to be 87200 ng·h/mL. In the series on hepatitis B virus (HBV), the EC50 is ≤ 0.05 µM. Besides, the 50% cytotoxic concentration (CC50) at 6 days in series [2] was > 100 µM.
